These results are taken from patent publication US6638972B2, “Chroman and benzofuran derivatives as 5-hydroxytryptamine-6 ligands” (Wyeth, priority 2001, dated 2003).

Where a name gives a salt, the structure may show the parent alone. Read-outs that look alike come from different tables or passages of the source.

In series [1] the target is T1, human cloned 5-HT6 receptors (Homo sapiens, UniProt P50406).
T1 construct: expressed in transfected cells; host or cells: HeLa cells (membrane preparation)
T1 sequence (P50406 whole entry): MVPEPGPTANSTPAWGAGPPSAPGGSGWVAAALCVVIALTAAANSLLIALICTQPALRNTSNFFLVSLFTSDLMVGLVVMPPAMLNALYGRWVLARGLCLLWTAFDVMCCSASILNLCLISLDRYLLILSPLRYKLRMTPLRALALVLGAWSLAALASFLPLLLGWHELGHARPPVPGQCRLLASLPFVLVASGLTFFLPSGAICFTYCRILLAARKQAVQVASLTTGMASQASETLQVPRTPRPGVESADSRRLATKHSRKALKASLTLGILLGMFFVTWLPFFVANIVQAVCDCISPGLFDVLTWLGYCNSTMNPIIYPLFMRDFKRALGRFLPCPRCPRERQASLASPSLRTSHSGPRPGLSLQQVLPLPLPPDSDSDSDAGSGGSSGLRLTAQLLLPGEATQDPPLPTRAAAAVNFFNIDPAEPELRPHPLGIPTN
Nature of the series: 5-HT6 binding affinity ([3H]-LSD displacement, membranes of Hela cells expressing human cloned 5-HT6 receptors). As to conditions: [3H]-LSD 3.0 nM, Hela cell membranes, 120 min at room temperature. The protocol:
The affinity of test compounds for the serotonin 5-T6 receptor is evaluated in the following manner. Cultured Hela cells expressing human cloned 5-HT6 receptors are harvested and centrifuged at low speed (1,000×g) for 10.0 min to remove the culture media. The harvested cells are suspended in half volume of fresh physiological phosphate buffered saline solution and recentrifuged at the same speed. This operation is repeated. The collected cells are then homogenized in ten volumes of 50 mM Tris.HCl (pH 7.4) and 0.5 mM EDTA. The homogenate is centrifuged at 40,000×g for 30.0 min and the precipitate is collected. The obtained pellet is resuspended in 10 volumes of Tris.HCl buffer and recentrifuged at the same speed. The final pellet is suspended in a small volume of Tris.HCl buffer and the tissue protein content is determined in aliquots of 10-25 μl volumes. Bovine Serum Albumin is used as the standard in the protein determination according to the method described in Lowry et al., J. Biol. Chem., 193:265 (1951). The volume of the suspended cell membranes is adjusted to give a tissue protein concentration of 1.0 mg/ml of suspension. The prepared membrane suspension (10 times concentrated) is aliquoted in 1.0 ml volumes and stored at −70° C. until used in subsequent binding experiments.
Binding experiments are performed in a 96 well microtiter plate format, in a total volume of 200 μl. […] The test compounds are added in 20.0 μl volume.
The reaction is allowed to proceed in the dark for 120 min at room temperature, at which time, the bound ligand-receptor complex is filtered off on a 96 well unifilter with a Packard Filtermate® 196 Harvester. The bound complex caught on the filter disk is allowed to air dry and the radioactivity is measured in a Packard TopCount® equipped with six photomultiplier detectors, after the addition of 40.0 μl Microscint®-20 scintillant to each shallow well. The unifilter plate is heat-sealed and counted in a PackardTopCount® with a tritium efficiency of 31.0%.
Binding in the presence of varying concentrations of test compound is expressed as a percentage of specific binding in the absence of test compound. The results are plotted as log % bound versus log concentration of test compound. […] A linear regression line of data points is plotted, from which the IC50 value is determined and the Ki value is determined based upon the following equation: […]
where L is the concentration of the radioactive ligand used and KD is the dissociation constant of the ligand for the receptor, both expressed in nM.

By melting point is commonly meant the temperature of the solid-liquid transition. As a reminder, the Ki is the equilibrium dissociation constant of an inhibitor or competing ligand from its target.

Compound `Cc1nc(COc2ccc3c(c2)OC(CNCCCO)CC3)cs1` (stereo not shown) (as salt: HCl) [Example 24, 3-{[7-(2-methyl-thiazol-4-ylmethoxy)-chroman-2-ylmethyl]-amino}-propan-1-ol] came in with a melting point of 123 to 128 °C.

The compound `CCCCOCCCNCC1CCc2ccc(OCc3ccccc3)cc2O1` (stereo not shown) (as salt: hydrochloride) [Example 8, (7-benzyloxy-chroman-2-ylmethyl)-(3-butoxy-propyl)-amine] yielded a melting point of 130 to 132 °C.

Consider `OCCNCC1CCc2ccc(OCc3ccccc3)cc2O1` (stereo not shown) (as salt: hydrochloride) [Example 9, 2-[(7-benzyloxy-chroman-2-ylmethyl)-amino]-ethanol], for which the melting point is 200 to 201 °C.

In turn, `c1ccc(CCCNCC2CCc3ccc(OCc4ccccc4)cc3O2)cc1` (stereo not shown) (as salt: hydrochloride) [Example 10, (7-benzyloxy-chroman-2-ylmethyl)-(3-phenyl-propyl)-amine] had a melting point of 138 to 139 °C.

Compound `c1ccc(COCCCNCC2CCc3ccc(OCc4ccccc4)cc3O2)cc1` (stereo not shown) (as salt: hydrochloride) [Example 11, (7-benzyloxy-chroman-2-ylmethyl)-(3-benzyloxy-propyl)-amine] gave a melting point of 138 to 139 °C.

Take `CCCCNCC1CCc2ccc(OCc3ccccc3)cc2O1` (stereo not shown) (as salt: hydrochloride) [Example 12, (7-benzyloxy-chroman-2-ylmethyl)-butyl-amine]: the melting point fell in the range of 150 to 151 °C.

On to `OCCCNCC1CCc2ccc(OCC3CCCCC3)cc2O1` (stereo not shown) (as salt: hydrochloride) [Example 13, 3-[(7-cyclohexylmethoxy-chroman-2-ylmethyl)-amino]-propan-1-ol], for which the melting point fell in the range of 159 to 160 °C.

Compound `OCCCNCC1CCc2ccc(OCc3ccccc3Cl)cc2O1` (stereo not shown) (as salt: hydrochloride) [Example 14, 3-{[7-(2-chloro-benzyloxy)-chroman-2-ylmethyl]-amino}-propan-1-ol] showed a melting point of 114 to 115 °C.

For the compound `OCCCNCC1CCc2ccc(Oc3ccccc3)cc2O1` (stereo not shown) (as salt: hydrochloride) [Example 15, 3-[(7-phenoxy-chroman-2-ylmethyl)-amino]-propan-1-ol], the melting point lay within 178 to 179 °C.

Consider `Cc1nc(COc2ccc3c(c2)OC(CNCCCO)CC3)cs1` (stereo not shown) (as salt: salt) [Example 23, 3-{[7-(2-methyl-thiazol-4-ylmethoxy)-chroman-2-ylmethyl]-amino}-propan-1-ol], for which the melting point lay within 94 to 102 °C.

For `NCC1CCc2ccc(OCc3ccccc3)cc2O1` (stereo not shown) [Example 6, [(7-Benzyloxy)chroman-2-yl]methylamine Hydrochloride], the Ki in series [1] (read-out: 5-HT6 Binding Ki) was found to be 15 nM.

Regarding `c1ccc(CNCC2CCc3ccc(OCc4ccccc4)cc3O2)cc1` (stereo not shown) [Example 7, Benzyl-[(7-benzyloxy)chroman-2-yl]methylamine Hydrochloride], in series [1] (read-out: 5-HT6 Binding Ki), the Ki was 26 nM.

With `CCCCOCCCNCC1CCc2ccc(OCc3ccccc3)cc2O1` (stereo not shown) [Example 8, (7-benzyloxy-chroman-2-ylmethyl)-(3-butoxy-propyl)-amine], the Ki in series [1] (read-out: 5-HT6 Binding Ki) was 16 nM.

On to `OCCNCC1CCc2ccc(OCc3ccccc3)cc2O1` (stereo not shown) [Example 9, 2-[(7-benzyloxy-chroman-2-ylmethyl)-amino]-ethanol], for which the Ki in series [1] (read-out: 5-HT6 Binding Ki) is 12 nM.

Consider `c1ccc(CCCNCC2CCc3ccc(OCc4ccccc4)cc3O2)cc1` (stereo not shown) [Example 10, (7-benzyloxy-chroman-2-ylmethyl)-(3-phenyl-propyl)-amine], for which the Ki in series [1] (read-out: 5-HT6 Binding Ki) is 44 nM.

Regarding `c1ccc(COCCCNCC2CCc3ccc(OCc4ccccc4)cc3O2)cc1` (stereo not shown) [Example 11, (7-benzyloxy-chroman-2-ylmethyl)-(3-benzyloxy-propyl)-amine], the Ki in series [1] (read-out: 5-HT6 Binding Ki) is 27 nM.

`CCCCNCC1CCc2ccc(OCc3ccccc3)cc2O1` (stereo not shown) [Example 12, (7-benzyloxy-chroman-2-ylmethyl)-butyl-amine]: the Ki in series [1] (read-out: 5-HT6 Binding Ki) was determined as 43 nM.

Turning to `OCCCNCC1CCc2ccc(OCC3CCCCC3)cc2O1` (stereo not shown) [Example 13, 3-[(7-cyclohexylmethoxy-chroman-2-ylmethyl)-amino]-propan-1-ol], the Ki in series [1] (read-out: 5-HT6 Binding Ki) is 357 nM.

Take `OCCCNCC1CCc2ccc(OCc3ccccc3Cl)cc2O1` (stereo not shown) [Example 14, 3-{[7-(2-chloro-benzyloxy)-chroman-2-ylmethyl]-amino}-propan-1-ol]: the Ki in series [1] (read-out: 5-HT6 Binding Ki) came to 38 nM.

Consider `OCCCNCC1CCc2ccc(Oc3ccccc3)cc2O1` (stereo not shown) [Example 15, 3-[(7-phenoxy-chroman-2-ylmethyl)-amino]-propan-1-ol], for which the Ki in series [1] (read-out: 5-HT6 Binding Ki) amounted to 283 nM.

For the compound `OCCCNCC1CCc2ccc(OCCc3ccccc3)cc2O1` (stereo not shown) [Example 22, 3-{[(7-(Phenethyloxy)chroman-2-ylmethyl]amino}propan-1-ol Hydrochloride], the Ki in series [1] (read-out: 5-HT6 Binding Ki) was found to be 101 nM.

In turn, `Cc1nc(COc2ccc3c(c2)OC(CNCCCO)CC3)cs1` (stereo not shown) [Example 23, 3-{[7-(2-methyl-thiazol-4-ylmethoxy)-chroman-2-ylmethyl]-amino}-propan-1-ol] yielded a Ki in series [1] (5-HT6 Binding Ki) of 41 nM.

On to `Cc1nc(COc2ccc3c(c2)OC(CNCCCO)CC3)cs1` (stereo not shown) [Example 24, 3-{[7-(2-methyl-thiazol-4-ylmethoxy)-chroman-2-ylmethyl]-amino}-propan-1-ol], for which, in series [1] (5-HT6 Binding Ki), the Ki was found to be 120 nM.

Consider `OCCCNCC1CCc2cc(Cl)c(OCc3ccccc3)cc2O1` (stereo not shown) [Example 29, 3-{[(7-Benzyloxy)-6-chlorochroman-2-ylmethyl]amino}propan-1-ol Fumaric Acid Salt], for which, in series [1] (read-out: 5-HT6 Binding Ki), the Ki turned out to be 34 nM.

In the case of `CN(CCCO)CC1CCc2ccc(OCc3ccccc3)cc2O1` (stereo not shown) [Example 30, 3-{[(7-benzyloxy)chroman-2-ylmethyl]methylamino}propan-1-ol Fumaric Acid Salt], in series [1] (read-out: 5-HT6 Binding Ki), the Ki was found to be 27 nM.

In the case of `O=[N+]([O-])c1ccc(OCCCNCC2CCc3ccc(OCc4ccccc4)cc3O2)cc1` (stereo not shown) [Example 32, (7-benzyloxy-chroman-2-ylmethyl)-[3-(4-nitro-phenoxy)-propyl]-amine], the melting point was 118 to 120 °C. In addition, in series [1] (read-out: 5-HT6 Binding Ki), the Ki stood at 157 nM.

`O=[N+]([O-])c1cccc(OCCCNCC2CCc3ccc(OCc4ccccc4)cc3O2)c1` (stereo not shown) [Example 33, (7-benzyloxy-chroman-2-ylmethyl)-[3-(3-nitro-phenoxy)-propyl]-amine] showed a melting point of 82 to 87 °C. Also, the Ki in series [1] (read-out: 5-HT6 Binding Ki) was 69 nM.

In turn, `Clc1cccc(OCCCNCC2CCc3ccc(OCc4ccccc4)cc3O2)c1` (stereo not shown) [Example 34, (7-benzyloxy-chroman-2-ylmethyl)-[3-(3-chloro-phenoxy)-propyl]-amine] came in with a melting point of 110 to 116 °C. Besides, in series [1] (read-out: 5-HT6 Binding Ki), the Ki came to 192 nM.

As for `O=c1ccc2ccc(OCCCNCC3CCc4ccc(OCc5ccccc5)cc4O3)cc2o1` (stereo not shown) [Example 35, 7-{3-[(7-benzyloxy-chroman-2-ylmethyl)-amino]-propoxy}-chromen-2-one], the melting point was in the range of 63 to 68 °C. Besides, the inhibitory constant (Ki) in series [1] (read-out: 5-HT6 Binding Ki) is 29 nM.

In turn, `O=c1ccc2ccc(OCCCNCC3CCc4cc(Cl)c(OCc5ccccc5)cc4O3)cc2o1` (stereo not shown) [Example 36, 7-{3-[(7-benzyloxy-6-chloro-chroman-2-ylmethyl)-amino]-propoxy}-chromen-2-one] showed a melting point of 92 to 95 °C. Moreover, the Ki in series [1] (read-out: 5-HT6 Binding Ki) stood at 43 nM.

Take `OC[C@H](CSCc1ccccc1)NCC1CCc2ccc(OCc3ccccc3)cc2O1` (stereo partly drawn) [Example 37, (2R)-2-[(7-benzyloxy-chroman-2-ylmethyl)-amino]-3-benzylsulfanyl-propan-1-ol]: the melting point was in the range of 59 to 65 °C. The Ki in series [1] (read-out: 5-HT6 Binding Ki) turned out to be 303 nM.

On to `OCCCNCCC1CCc2ccc(OCc3ccccc3)cc2O1` (stereo not shown) [Example 42, 3-{[2-(7-Benzyloxy)chroman-2-yl]ethylamino}propan-1-ol Hydrochloride], for which, in series [1] (read-out: 5-HT6 Binding Ki), the Ki came to 107 nM.

`OCCNC[C@H]1CCc2ccc(OCc3ccccc3)cc2O1` [Example 44]: the melting point was 196 to 197 °C. For the same compound, the Ki in series [1] (read-out: 5-HT6 Binding Ki) was 10 nM.

Turning to `OCCCNC[C@H]1CCc2ccc(OCc3ccccc3)cc2O1` [Example 45, 3-{[(2R)-7-benzyloxy-chroman-2-ylmethyl]-amino}-propan-1-ol], the melting point is 119 °C. In addition, the Ki in series [1] (read-out: 5-HT6 Binding Ki) worked out at 9 nM.

For the compound `OCCNCC1Cc2ccc(OCc3ccccc3)cc2O1` (stereo not shown) [Example 51, 2-{[6-(Benzyloxy)-2,3-dihydrobenzofuran-2-ylmethyl]amino}ethanol Hydrochloride], the Ki in series [1] (read-out: 5-HT6 Binding Ki) is 386 nM.
